Where “and” joins values, the source holds several entries; their conditions need not be identical. Equal entries are not always repeated.
System: K-562 leukemia growth, % test/control
Experiment: Anticancer human tumor K-562 cell line growth inhibition;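 as to viability, T/C: 100% = DMSO vehicle wells and lower values mean fewer viable cells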
Conditions: spheroids with HUVEC and MSC; for viability, T/C: stronger effect = lower value
Summary of the method: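 Complex spheroids of tumor cells with HUVEC and human MSCs, exposed to iadademstat combined with other agents. Each agent tested in half-log steps from near clinical Cmax (else 10 microM top), DMSO ≤0.25%.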

[1] = curve of first compound, second compound 0.1 µM
[2] = curve of first compound, second compound 0.316 µM
[3] = curve of first compound, second compound 1 µM
[4] = curve of first compound, second compound 3.16 µM
[5] = curve of first compound, second compound 10 µM
[6] = second compound 0.1 µM, first compound 0.00316 µM
[7] = second compound 0.1 µM, first compound 0.01 µM
[8] = second compound 0.1 µM, first compound 0.0316 µM
[9] = second compound 0.1 µM, first compound 0.1 µM
[10] = second compound 0.316 µM, first compound 0.00316 µM
[11] = second compound 0.316 µM, first compound 0.01 µM
[12] = second compound 0.316 µM, first compound 0.0316 µM
[13] = second compound 0.316 µM, first compound 0.1 µM
[14] = second compound 1 µM, first compound 0.00316 µM
[15] = second compound 1 µM, first compound 0.01 µM
[16] = second compound 1 µM, first compound 0.0316 µM
[17] = second compound 1 µM, first compound 0.1 µM
[18] = second compound 3.16 µM, first compound 0.00316 µM
[19] = second compound 3.16 µM, first compound 0.01 µM
[20] = second compound 3.16 µM, first compound 0.0316 µM
[21] = second compound 3.16 µM, first compound 0.1 µM
[22] = second compound 10 µM, first compound 0.00316 µM
[23] = second compound 10 µM, first compound 0.01 µM
[24] = second compound 10 µM, first compound 0.0316 µM
[25] = second compound 10 µM, first compound 0.1 µM
[26] = second compound 0.1 µM, first compound 0.000316 µM
[27] = second compound 0.1 µM, first compound 0.001 µM
[28] = second compound 0.316 µM, first compound 0.000316 µM
[29] = second compound 0.316 µM, first compound 0.001 µM
[30] = second compound 1 µM, first compound 0.000316 µM
[31] = second compound 1 µM, first compound 0.001 µM
[32] = second compound 3.16 µM, first compound 0.000316 µM
[33] = second compound 3.16 µM, first compound 0.001 µM
[34] = second compound 10 µM, first compound 0.000316 µM
[35] = second compound 10 µM, first compound 0.001 µM

Row | Structure (SMILES) | IC50 [1] | IC50 [2] | IC50 [3] | IC50 [4] | IC50 [5] | viability, T/C [6] | viability, T/C [7] | viability, T/C [8] | viability, T/C [9] | viability, T/C [10] | viability, T/C [11] | viability, T/C [12] | viability, T/C [13] | viability, T/C [14] | viability, T/C [15] | viability, T/C [16] | viability, T/C [17] | viability, T/C [18] | viability, T/C [19] | viability, T/C [20] | also measured
1 | CC1COCCN1c1cc(-c2ccnn2C)c2ccnc(-c3ccn[nH]3)c2n1 (configuration not stated) + NC1CCC(NC2CC2c2ccccc2)CC1 | 11.2 nM | 12.2 nM | 11.4 nM | 10.1 nM | 7.2 nM | 90.4% | 54.5% | 10.2% | 3.75% | 91% | 57.9% | 12.9% | 3.52% | 92.7% | 55.1% | 9.5% | 3.51% | 92.2% | 50.2% | 11.5% | viability, T/C (second compound 0.1 µM, first compound 0.316 µM): 2.62%; viability, T/C (second compound 0.1 µM, first compound 1 µM): 2.45%; viability, T/C (second compound 0.316 µM, first compound 0.316 µM): 2.63%; viability, T/C (second compound 0.316 µM, first compound 1 µM): 2.48%; viability, T/C (second compound 1 µM, first compound 0.316 µM): 2.76%; viability, T/C (second compound 1 µM, first compound 1 µM): 2.82%; viability, T/C [21]: 3.8%; viability, T/C (second compound 3.16 µM, first compound 0.316 µM): 3.16%; viability, T/C (second compound 3.16 µM, first compound 1 µM): 2.7%; viability, T/C [22]: 83.3%; viability, T/C [23]: 36.7%; viability, T/C [24]: 8.26%; viability, T/C [25]: 4.09%; viability, T/C (second compound 10 µM, first compound 0.316 µM): 2.75%; viability, T/C (second compound 10 µM, first compound 1 µM): 3.72%
2 | CC1COCCN1c1cc(C2(S(C)(=N)=O)CC2)nc(-c2ccnc3[nH]ccc23)n1 (configuration not stated) | – | – | – | – | – | – | – | – | – | – | – | – | – | – | – | – | – | – | – | – | viability, T/C (compound 0.0316 µM): 91.2% and 107%; viability, T/C (compound 0.1 µM): 89.3% and 102%; viability, T/C (compound 0.316 µM): 74.7% and 91.8%; viability, T/C (compound 1 µM): 29.1% and 74.6%; viability, T/C (compound 3.16 µM): 5.34% and 10.9%; viability, T/C (compound 10 µM): 2.87% and 2.76%; IC50 (curve of compound): 589 nM and 1550 nM
3 | Cn1ncnc1C1c2n[nH]c(=O)c3cc(F)cc(c23)NC1c1ccc(F)cc1 (configuration not stated) + NC1CCC(NC2CC2c2ccccc2)CC1 | > 100 nM | > 100 nM | > 100 nM | > 100 nM | > 100 nM | 101% | 101% | 101% | 97% | 102% | 99% | 101% | 98.9% | 99.7% | 103% | 102% | 101% | 104% | 104% | 104% | viability, T/C [26]: 102%; viability, T/C [27]: 97.6%; viability, T/C [28]: 101%; viability, T/C [29]: 102%; viability, T/C [30]: 108%; viability, T/C [31]: 102%; viability, T/C [32]: 100%; viability, T/C [33]: 103%; viability, T/C [21]: 101%; viability, T/C [34]: 99.3%; viability, T/C [35]: 99.6%; viability, T/C [22]: 101%; viability, T/C [23]: 101%; viability, T/C [24]: 98.5%; viability, T/C [25]: 96.1%
4 | Cn1ncnc1C1c2n[nH]c(=O)c3cc(F)cc(c23)NC1c1ccc(F)cc1 (configuration not stated) + NC1CC1c1ccc(-c2cccc(O)c2)cc1 | > 100 nM | > 100 nM | > 100 nM | > 100 nM | > 100 nM | 108% | 108% | 105% | 101% | 105% | 105% | 101% | 97.2% | 97.8% | 96.7% | 97.2% | 95.2% | 95.6% | 98.8% | 98.5% | viability, T/C [26]: 112%; viability, T/C [27]: 110%; viability, T/C [28]: 108%; viability, T/C [29]: 105%; viability, T/C [30]: 106%; viability, T/C [31]: 102%; viability, T/C [32]: 106%; viability, T/C [33]: 100%; viability, T/C [21]: 93.2%; viability, T/C [34]: 101%; viability, T/C [35]: 101%; viability, T/C [22]: 99.7%; viability, T/C [23]: 98.4%; viability, T/C [24]: 95.4%; viability, T/C [25]: 89.1%
5 | CC[C@@]1(O)C(=O)OCc2c1cc1n(c2=O)Cc2cc3c(CN(C)C)c(O)ccc3nc2-1 + NC1CCC(NC2CC2c2ccccc2)CC1 | 1.7 nM | 1.73 nM | 1.69 nM | 1.77 nM | 1.53 nM | 34.7% | 16.3% | 8.26% | 4.03% | 33.9% | 15.8% | 7.94% | 3.55% | 32.8% | 14.4% | 6.59% | 3.47% | 34.5% | 15.1% | 7.29% | viability, T/C [26]: 98.9%; viability, T/C [27]: 63.2%; viability, T/C [28]: 101%; viability, T/C [29]: 64.6%; viability, T/C [30]: 99.5%; viability, T/C [31]: 64.5%; viability, T/C [32]: 97.6%; viability, T/C [33]: 65.3%; viability, T/C [21]: 4.79%; viability, T/C [34]: 94.3%; viability, T/C [35]: 62.6%; viability, T/C [22]: 28.1%; viability, T/C [23]: 12.8%; viability, T/C [24]: 5.5%; viability, T/C [25]: 2.86%

From PubChem BioAssay AID1918948 (Molecular Pharmacology Branch, DTP, NCI, 2023)
